Assay results as given in US20240182531A1, “KV1.3 Blockers” (priority 2021, published 2024).
Where a SMILES comes first, the peptide text is derived from it. Bridges are numbered along the chain shown (N, C = ends). [ ]: non-standard residue; d: D form. Phe(4-NH2) = Nc1ccc(C[C@H](N)C(=O)O)cc1; Nle = CCCC[C@H](N)C(=O)O

How the values were obtained:
[1] = target: Rat whole blood (Rattus norvegicus, UniProt P15384); assay type: cell-based; details: IL-17A release, thapsigargin, 24 Hr, at least 2 replicates
Sequence of Rat whole blood (P15384 whole entry): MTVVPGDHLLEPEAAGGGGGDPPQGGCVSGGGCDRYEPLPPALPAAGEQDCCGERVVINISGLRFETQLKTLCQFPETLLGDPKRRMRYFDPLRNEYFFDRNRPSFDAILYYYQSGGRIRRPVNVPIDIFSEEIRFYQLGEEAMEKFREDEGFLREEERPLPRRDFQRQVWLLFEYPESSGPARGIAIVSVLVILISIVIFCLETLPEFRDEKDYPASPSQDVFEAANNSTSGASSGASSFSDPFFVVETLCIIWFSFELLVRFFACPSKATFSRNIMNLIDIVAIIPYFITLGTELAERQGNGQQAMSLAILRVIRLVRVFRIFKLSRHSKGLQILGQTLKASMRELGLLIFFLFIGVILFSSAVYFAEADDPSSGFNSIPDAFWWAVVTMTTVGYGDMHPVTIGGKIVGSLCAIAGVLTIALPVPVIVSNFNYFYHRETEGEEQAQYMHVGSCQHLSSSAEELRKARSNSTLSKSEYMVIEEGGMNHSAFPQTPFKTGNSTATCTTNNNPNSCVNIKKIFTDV

[2] = target: T1, human Kv1.2 (Homo sapiens, UniProt P16389); assay: cell-based; details: ratio of patch clamp IC50 values
T1 construct: expressed in transfected cells; host or cells: CHO
T1 sequence (P16389 whole entry): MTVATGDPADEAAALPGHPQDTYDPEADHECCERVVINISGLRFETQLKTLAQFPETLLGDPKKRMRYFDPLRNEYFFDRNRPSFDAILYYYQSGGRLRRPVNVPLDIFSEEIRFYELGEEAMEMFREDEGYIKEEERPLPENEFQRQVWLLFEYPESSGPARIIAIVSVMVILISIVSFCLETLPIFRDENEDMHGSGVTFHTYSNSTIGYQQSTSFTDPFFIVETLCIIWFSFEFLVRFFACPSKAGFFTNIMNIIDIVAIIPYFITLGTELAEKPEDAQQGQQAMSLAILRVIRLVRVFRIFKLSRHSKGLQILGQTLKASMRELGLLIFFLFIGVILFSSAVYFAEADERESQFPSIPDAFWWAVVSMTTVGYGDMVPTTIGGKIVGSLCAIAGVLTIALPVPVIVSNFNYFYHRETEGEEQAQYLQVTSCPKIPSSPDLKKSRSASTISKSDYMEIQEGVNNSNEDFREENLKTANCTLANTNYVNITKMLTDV

[3] = target: T2, human Kv1.6 (Homo sapiens, UniProt P17658); assay: cell-based; details: ratio of patch clamp IC50 values
T2 construct: expressed in transfected cells; host or cells: CHO
T2 sequence (P17658 whole entry): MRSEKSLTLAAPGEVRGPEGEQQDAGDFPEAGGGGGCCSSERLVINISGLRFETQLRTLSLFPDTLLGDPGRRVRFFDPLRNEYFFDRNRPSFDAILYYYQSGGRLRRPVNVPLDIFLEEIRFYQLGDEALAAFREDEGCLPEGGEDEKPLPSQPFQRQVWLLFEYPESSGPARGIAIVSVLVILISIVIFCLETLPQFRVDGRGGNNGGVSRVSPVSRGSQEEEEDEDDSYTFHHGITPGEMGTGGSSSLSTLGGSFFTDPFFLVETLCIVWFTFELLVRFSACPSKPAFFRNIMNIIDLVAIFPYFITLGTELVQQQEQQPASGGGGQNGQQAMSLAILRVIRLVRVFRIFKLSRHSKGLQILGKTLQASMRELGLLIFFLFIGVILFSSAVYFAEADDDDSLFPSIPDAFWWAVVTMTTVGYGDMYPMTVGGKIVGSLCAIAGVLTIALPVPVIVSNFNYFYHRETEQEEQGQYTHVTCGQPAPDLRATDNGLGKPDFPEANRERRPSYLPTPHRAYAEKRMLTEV

[4] = target: T3, human Kv1.1 (Homo sapiens, UniProt Q09470); assay: cell-based; details: ratio of patch clamp IC50 values
T3 construct: expressed in transfected cells; host or cells: CHO
T3 sequence (Q09470 whole entry): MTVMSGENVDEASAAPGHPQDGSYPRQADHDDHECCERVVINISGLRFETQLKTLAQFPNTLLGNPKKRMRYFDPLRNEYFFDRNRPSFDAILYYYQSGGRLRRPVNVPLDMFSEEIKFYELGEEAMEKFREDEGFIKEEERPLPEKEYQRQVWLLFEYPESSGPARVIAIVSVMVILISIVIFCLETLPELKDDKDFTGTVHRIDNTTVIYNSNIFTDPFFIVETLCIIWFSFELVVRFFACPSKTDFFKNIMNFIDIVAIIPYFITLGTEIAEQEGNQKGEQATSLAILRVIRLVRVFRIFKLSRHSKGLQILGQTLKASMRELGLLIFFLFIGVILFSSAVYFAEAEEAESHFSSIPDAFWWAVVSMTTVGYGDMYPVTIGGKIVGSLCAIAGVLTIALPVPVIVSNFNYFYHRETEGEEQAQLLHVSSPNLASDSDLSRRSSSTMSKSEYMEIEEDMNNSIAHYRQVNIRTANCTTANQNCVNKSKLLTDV

| SMILES | IC50 [1] [nM] | Selectivity ratio Kv1.2/Kv1.3 [2] | Selectivity ratio Kv1.6/Kv1.3 [3] | Selectivity ratio Kv1.1/Kv1.3 [4] |
| --- | --- | --- | --- | --- |
| CCCC[C@@H]1NC(=O)[C@@H]2CSSC[C@H](NC(=O)[C@H](CCCNC(=N)N)NC(=O)[C@H](CCCC)NC(=O)[C@H](CC(=O)O)NC(=O)[C@H](CCCC)NC(=O)[C@@H](N)CC(N)=O)C(=O)N[C@@H](CO)C(=O)N[C@@H](C)C(=O)N[C@@H](CO)C(=O)N[C@@H](C(C)C)C(=O)N[C@@H](CCC(=O)O)C(=O)N[C@H]3CSSC[C@H](NC(=O)[C@H](CCCCN)NC(=O)[C@H](CCCCN)NC(=O)[C@H](CC(N)=O)NC1=O)C(=O)N[C@@H](CCCCN)C(=O)N[C@H](C(=O)N[C@@H](Cc1ccc(O)cc1)C(=O)N1CCC[C@H]1C(=O)N[C@@H](CCCNC(=N)N)C(N)=O)CSSC[C@H](NC(=O)[C@H](CCCCN)NC(=O)[C@H](CCCCN)NC(=O)[C@H](CCCCN)NC3=O)C(=O)N[C@@H](CC(C)C)C(=O)N[C@@H](CCCCN)C(=O)N[C@@H](C)C(=O)N[C@@H]([C@@H](C)CC)C(=O)NCC(=O)N[C@@H](CO)C(=O)N[C@@H]([C@@H](C)CC)C(=O)N[C@@H](Cc1ccccc1)C(=O)NCC(=O)N[C@@H](CCCCN)C(=O)N2 [compound 49] (H-N[Nle]D[Nle]RCSASVECKKKCLKAIGSIFGKC[Nle]NKKCKCYPR-NH2; disulfide 6-27, 12-32, 16-34) | 1.4 | 343 | >4000 | >4000 |
| CCCC[C@@H]1NC(=O)[C@@H]2CSSC[C@H](NC(=O)[C@H](CCCNC(=N)N)NC(=O)[C@H](CCCC)NC(=O)[C@H](CO)NC(=O)[C@H](CCCC)NC(=O)[C@@H](N)CC(N)=O)C(=O)N[C@@H](CO)C(=O)N[C@@H](C)C(=O)N[C@@H](CO)C(=O)N[C@@H](C(C)C)C(=O)N[C@@H](CCC(=O)O)C(=O)N[C@H]3CSSC[C@H](NC(=O)[C@H](CCCCN)NC(=O)[C@H](CCCCN)NC(=O)[C@H](CC(N)=O)NC1=O)C(=O)N[C@@H](CCCCN)C(=O)N[C@H](C(=O)N[C@@H](Cc1ccc(O)cc1)C(=O)N1CCC[C@H]1C(=O)N[C@@H](CCCNC(=N)N)C(N)=O)CSSC[C@H](NC(=O)[C@H](CCCCN)NC(=O)[C@H](CCC(N)=O)NC(=O)[C@H](CCCCN)NC3=O)C(=O)N[C@@H](CC(C)C)C(=O)N[C@@H](CCCCN)C(=O)N[C@@H](C)C(=O)N[C@@H]([C@@H](C)CC)C(=O)NCC(=O)N[C@@H](CO)C(=O)N[C@@H]([C@@H](C)CC)C(=O)N[C@@H](Cc1ccccc1)C(=O)NCC(=O)N[C@@H](CCCCN)C(=O)N2 [compound 50] (H-N[Nle]S[Nle]RCSASVECKQKCLKAIGSIFGKC[Nle]NKKCKCYPR-NH2; disulfide 6-27, 12-32, 16-34) | 0.79 | 943 | 4359 | >9400 |
| CCCC[C@@H]1NC(=O)[C@@H]2CSSC[C@H](NC(=O)[C@H](CCCNC(=N)N)NC(=O)[C@H](CCCC)NC(=O)[C@H](CC(=O)O)NC(=O)[C@H](CCCC)NC(=O)[C@@H](N)CC(N)=O)C(=O)N[C@@H](CO)C(=O)N[C@@H](Cc3c[nH]cn3)C(=O)N[C@@H](CO)C(=O)N[C@@H](C(C)C)C(=O)N[C@@H](CCC(=O)O)C(=O)N[C@H]3CSSC[C@H](NC(=O)[C@H](CCCCN)NC(=O)[C@H](CCCCN)NC(=O)[C@H](CC(N)=O)NC1=O)C(=O)N[C@@H](CCCCN)C(=O)N[C@H](C(=O)N[C@@H](Cc1ccc(O)cc1)C(=O)N1CCC[C@H]1C(=O)N[C@@H](CCCNC(=N)N)C(N)=O)CSSC[C@H](NC(=O)[C@H](CCCCN)NC(=O)[C@H](CCC(N)=O)NC(=O)[C@H](CCCCN)NC3=O)C(=O)N[C@@H](CC(C)C)C(=O)N[C@@H](CCCCN)C(=O)N[C@@H](C)C(=O)N[C@@H]([C@@H](C)CC)C(=O)NCC(=O)N[C@@H](CO)C(=O)N[C@@H]([C@@H](C)CC)C(=O)N[C@@H](Cc1ccccc1)C(=O)NCC(=O)N[C@@H](CCCCN)C(=O)N2 [compound 51] (H-N[Nle]D[Nle]RCSHSVECKQKCLKAIGSIFGKC[Nle]NKKCKCYPR-NH2; disulfide 6-27, 12-32, 16-34) | 0.83 | 1438 | 1134 | >5600 |
| CCCC[C@@H]1NC(=O)[C@@H]2CSSC[C@H](NC(=O)[C@H](CCCNC(=N)N)NC(=O)[C@H](CCCC)NC(=O)[C@H](CC(=O)O)NC(=O)[C@H](CCCC)NC(=O)[C@@H](N)CC(N)=O)C(=O)N[C@@H](CO)C(=O)N[C@@H](C)C(=O)N[C@@H](CO)C(=O)N[C@@H](C(C)C)C(=O)N[C@@H](CCC(=O)O)C(=O)N[C@H]3CSSC[C@H](NC(=O)[C@H](CCCCN)NC(=O)[C@H](CCCCN)NC(=O)[C@H](CC(N)=O)NC1=O)C(=O)N[C@@H](CCCCN)C(=O)N[C@H](C(=O)N[C@@H](Cc1ccc(O)cc1)C(=O)N1CCC[C@H]1C(=O)N[C@@H](CCCNC(=N)N)C(N)=O)CSSC[C@H](NC(=O)[C@H](CCCCN)NC(=O)[C@H](CCC(N)=O)NC(=O)[C@H](CCCCN)NC3=O)C(=O)N[C@@H](CCCCN)C(=O)N[C@@H](C)C(=O)N[C@@H]([C@@H](C)CC)C(=O)NCC(=O)N[C@@H](CO)C(=O)N[C@@H]([C@@H](C)CC)C(=O)N[C@@H](Cc1ccccc1)C(=O)NCC(=O)N[C@@H](CCCCN)C(=O)N2 [compound 53] (H-N[Nle]D[Nle]RCSASVECKQKCKAIGSIFGKC[Nle]NKKCKCYPR-NH2; disulfide 6-26, 12-31, 16-33) | 1 | 123 | 707 | >2200 |
| CCCC[C@@H]1NC(=O)[C@@H]2CSSC[C@H](NC(=O)[C@H](CCCNC(=N)N)NC(=O)[C@H](CCCC)NC(=O)[C@H](CC(=O)O)NC(=O)[C@H](CCCC)NC(=O)[C@@H](N)CC(N)=O)C(=O)N[C@@H](CO)C(=O)N[C@@H](C)C(=O)N[C@@H](CO)C(=O)N[C@@H](C(C)C)C(=O)N[C@@H](CCC(=O)O)C(=O)N[C@H]3CSSC[C@H](NC(=O)[C@H](CCCCN)NC(=O)[C@H](CCCCN)NC(=O)[C@H](CC(N)=O)NC1=O)C(=O)N[C@@H](CCCCN)C(=O)N[C@H](C(=O)N[C@@H](Cc1ccc(O)cc1)C(=O)N1CCC[C@H]1C(=O)N[C@@H](CCCNC(=N)N)C(N)=O)CSSC[C@H](NC(=O)[C@H](CCCCN)NC(=O)[C@H](CCC(N)=O)NC(=O)[C@H](CCCCN)NC3=O)C(=O)N[C@@H](CC(C)C)C(=O)N[C@@H](CCCCN)C(=O)N[C@@H](C)C(=O)N[C@@H]([C@@H](C)CC)C(=O)NCC(=O)N[C@@H](CO)C(=O)N1CCC[C@H]1C(=O)N[C@@H](Cc1ccccc1)C(=O)NCC(=O)N[C@@H](CCCCN)C(=O)N2 [compound 62] (H-N[Nle]D[Nle]RCSASVECKQKCLKAIGSPFGKC[Nle]NKKCKCYPR-NH2; disulfide 6-27, 12-32, 16-34) | 0.44 | 1740 | 9102 | >11600 |
| CCCC[C@@H]1NC(=O)[C@@H]2CSSC[C@H](NC(=O)[C@H](CCCNC(=N)N)NC(=O)[C@H](CCCC)NC(=O)[C@H](CC(=O)O)NC(=O)[C@H](CCCC)NC(=O)[C@@H](N)CC(N)=O)C(=O)N[C@@H](CO)C(=O)N[C@@H](C)C(=O)N[C@@H](CO)C(=O)N[C@@H](CCCCN)C(=O)N[C@@H](CCC(=O)O)C(=O)N[C@H]3CSSC[C@H](NC(=O)[C@H](CCCCN)NC(=O)[C@H](CCCCN)NC(=O)[C@H](CC(N)=O)NC1=O)C(=O)N[C@@H](CCCCN)C(=O)N[C@H](C(=O)N[C@@H](Cc1ccc(O)cc1)C(=O)N1CCC[C@H]1C(=O)N[C@@H](CCCNC(=N)N)C(N)=O)CSSC[C@H](NC(=O)[C@H](CCCCN)NC(=O)[C@H](CCC(N)=O)NC(=O)[C@H](CCCCN)NC3=O)C(=O)N[C@@H](CC(C)C)C(=O)N[C@@H](CCCCN)C(=O)N[C@@H](C)C(=O)N[C@@H]([C@@H](C)CC)C(=O)NCC(=O)N[C@@H](CO)C(=O)N[C@@H]([C@@H](C)CC)C(=O)N[C@@H](Cc1ccccc1)C(=O)NCC(=O)N[C@@H](CCCCN)C(=O)N2 [compound 63] (H-N[Nle]D[Nle]RCSASKECKQKCLKAIGSIFGKC[Nle]NKKCKCYPR-NH2; disulfide 6-27, 12-32, 16-34) | 0.68 | 587 | 3929 | >9600 |
| CCCC[C@H](NC(=O)[C@H](CC(=O)O)NC(=O)[C@H](CCCC)NC(=O)[C@@H](N)CO)C(=O)N[C@@H](CCCNC(=N)N)C(=O)N[C@H]1CSSC[C@@H]2NC(=O)[C@H](CCCCN)NC(=O)CNC(=O)[C@H](Cc3ccccc3)NC(=O)[C@H]([C@@H](C)CC)NC(=O)[C@H](CO)NC(=O)CNC(=O)[C@H]([C@@H](C)CC)NC(=O)[C@H](C)NC(=O)[C@H](CCCCN)NC(=O)[C@H](CC(C)C)NC(=O)[C@@H]3CSSC[C@@H](C(=O)N[C@@H](Cc4ccc(N)cc4)C(=O)N4CCC[C@H]4C(=O)N[C@@H](CCCNC(=N)N)C(N)=O)NC(=O)[C@H](CCCCN)NC(=O)[C@H](CSSC[C@H](NC(=O)[C@H](CCC(=O)O)NC(=O)[C@H](C(C)C)NC(=O)[C@H](CO)NC(=O)[C@H](C)NC(=O)[C@H](CO)NC1=O)C(=O)N[C@@H](CCCCN)C(=O)N[C@@H](CCC(N)=O)C(=O)N[C@@H](CCCCN)C(=O)N3)NC(=O)[C@H](CCCCN)NC(=O)[C@H](CCCCN)NC(=O)[C@H](CC(N)=O)NC(=O)[C@H](CCSC)NC2=O [compound 70] (H-S[Nle]D[Nle]RCSASVECKQKCLKAIGSIFGKCMNKKCKC[Phe(4-NH2)]PR-NH2; disulfide 6-27, 12-32, 16-34) | 0.79 | 1720 | >12200 | >12200 |
